Results as given in patent publication US11912686B2 (Gilead Sciences, Inc., priority 2020, dated 2024).

Target: human LPAR1 (Homo sapiens (Human), UniProt Q92633)
Assay: LPAR1 intracellular calcium mobilization assay (antagonist mode, FLIPR)
Type: cell-based
Conditions: CHO-K1 EDG2 cells expressing human LPAR1, LPA 18:2 at EC80 (100 nM), test compound 0.5 nM to 10 μM

human LPAR1, sequence (Q92633 whole entry): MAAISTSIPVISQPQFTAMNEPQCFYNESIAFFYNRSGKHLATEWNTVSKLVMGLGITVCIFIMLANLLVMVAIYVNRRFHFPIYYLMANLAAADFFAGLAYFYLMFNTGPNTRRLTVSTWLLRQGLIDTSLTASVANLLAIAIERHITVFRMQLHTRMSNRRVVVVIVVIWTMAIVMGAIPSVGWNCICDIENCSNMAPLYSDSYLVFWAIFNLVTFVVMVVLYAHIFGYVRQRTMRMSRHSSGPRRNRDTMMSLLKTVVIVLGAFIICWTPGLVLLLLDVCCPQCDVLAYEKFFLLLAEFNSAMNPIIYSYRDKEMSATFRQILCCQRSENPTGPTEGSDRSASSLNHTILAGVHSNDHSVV

C[C@@H](OC(=O)Nc1c(-c2ccc(NC(=O)C3(C#N)CC3(C)C)cn2)nnn1C)c1cccnc1Cl (stereo partly drawn) [Compound 146, (R)-1-(2-chloropyridin-3-yl)ethyl (4-(5-(1-cyano-2,2-dimethylcyclopropane-1-carboxamido)pyridin-2-yl)-1-methyl-1H-1,2,3-triazol-5-yl)carbamate] was tested. Which EC50 did it give?
The EC50 was 271 nM.

Which EC50 does the source give for C[C@@H](OC(=O)Nc1c(-c2ccc(NC(=O)c3cnc(C(F)F)nc3)cn2)nnn1C)c1cc(F)cnc1Cl [Compound 289, (R)-1-(2-chloro-5-fluoropyridin-3-yl)ethyl (4-(5-(2-(difluoromethyl)pyrimidine-5-carboxamido)pyridin-2-yl)-1-methyl-1H-1,2,3-triazol-5-yl)carbamate] here?
Its EC50 is 21.5 nM.

Which EC50 does the source give for C[C@@H](OC(=O)Nc1c(-c2ccc(NC(=O)C34COC(C3)C4)cn2)nnn1C)c1cccnc1Cl [Compound 104, (R)-1-(2-chloropyridin-3-yl)ethyl (4-(5-(2-oxabicyclo[2.1.1]hexane-4-carboxamido)pyridin-2-yl)-1-methyl-1H-1,2,3-triazol-5-yl)carbamate] here?
Its EC50 is 560 nM.

For Cc1ncc(F)cc1[C@@H](C)OC(=O)Nc1c(-c2ccc(NC(=O)[C@@H]3CC3(F)F)cn2)nnn1C [Compound 180, (R)-1-(5-fluoro-2-methylpyridin-3-yl)ethyl (4-(5-((S)-2,2-difluorocyclopropane-1-carboxamido)pyridin-2-yl)-1-methyl-1H-1,2,3-triazol-5-yl)carbamate], which EC50 is on record?
Its EC50 is 123 nM.

Which EC50 does the source give for C[C@@H](OC(=O)Nc1c(-c2ccc(NC(=O)[C@@H]3C[C@H]3F)cn2)nnn1C)c1cccnc1Cl [Compound 69, (R)-1-(2-chloropyridin-3-yl)ethyl (4-(5-((1S,2R)-2-fluorocyclopropane-1-carboxamido)pyridin-2-yl)-1-methyl-1H-1,2,3-triazol-5-yl)carbamate] here?
The EC50 was 53 nM.

How did the EC50 turn out when C[C@@H](OC(=O)Nc1c(-c2ccc(NC(=O)C34CC(C(F)(F)F)(C3)C4)cn2)nnn1C)c1cccnc1F [Compound 170, (R)-1-(2-fluoropyridin-3-yl)ethyl (1-methyl-4-(5-(3-(trifluoromethyl)bicyclo[1.1.1]pentane-1-carboxamido)pyridin-2-yl)-1H-1,2,3-triazol-5-yl)carbamate] was run?
The EC50 was 31.8 nM.

How did the EC50 turn out when C[C@@H](OC(=O)Nc1c(-c2ncc(NC(=O)[C@@H]3C[C@H]3C(F)(F)F)cn2)nnn1C)c1cc(F)cnc1Cl [Compound 331, (R)-1-(2-chloro-5-fluoropyridin-3-yl)ethyl (1-methyl-4-(5-((1R,2R)-2-(trifluoromethyl)cyclopropane-1-carboxamido)pyrimidin-2-yl)-1H-1,2,3-triazol-5-yl)carbamate] was run?
The EC50 was 22.8 nM.

C[C@@H](O)C(=O)Nc1ccc(-c2nnn(C)c2NC(=O)O[C@H](C)c2cccnc2Cl)nc1 [Compound 124, (R)-1-(2-chloropyridin-3-yl)ethyl (4-(5-((R)-2-hydroxypropanamido)pyridin-2-yl)-1-methyl-1H-1,2,3-triazol-5-yl)carbamate] was tested. Which EC50 did it give?
The EC50 was 3630 nM.

For C[C@@H](OC(=O)Nc1c(-c2ccc(NC(=O)c3ccc(=O)n(C)c3)cn2)nnn1C)c1cc(F)cnc1F [Compound 236, (R)-1-(2,5-difluoropyridin-3-yl)ethyl (1-methyl-4-(5-(1-methyl-6-oxo-1,6-dihydropyridine-3-carboxamido)pyridin-2-yl)-1H-1,2,3-triazol-5-yl)carbamate], which EC50 is on record?
The EC50 was 1660 nM.

How did the EC50 turn out when CO[C@@H]1C[C@H]1C(=O)Nc1ccc(-c2nnn(C)c2NC(=O)O[C@H](C)c2cc(F)cnc2F)nc1 (mixture of isomers) [Compound 210, (R)-1-(2,5-difluoropyridin-3-yl)ethyl (4-(5-((1RS,2RS)-2-methoxycyclopropane-1-carboxamido)pyridin-2-yl)-1-methyl-1H-1,2,3-triazol-5-yl)carbamate] was run?
The EC50 was 243 nM.

For C[C@@H](OC(=O)Nc1c(-c2ccc(NC(=O)C3(CO)CC(F)(F)C3)cn2)nnn1C)c1cccnc1Cl [Compound 200, (R)-1-(2-chloropyridin-3-yl)ethyl (4-(5-(3,3-difluoro-1-(hydroxymethyl)cyclobutane-1-carboxamido)pyridin-2-yl)-1-methyl-1H-1,2,3-triazol-5-yl)carbamate], which EC50 is on record?
The EC50 was 94 nM.

How did the EC50 turn out when C[C@@H](OC(=O)Nc1c(-c2ccc(NC(=O)[C@@H]3C[C@H]3c3ccccc3)cn2)nnn1C)c1cccnc1Cl [Compound 197, (R)-1-(2-chloropyridin-3-yl)ethyl (1-methyl-4-(5-((1R,2R)-2-phenylcyclopropane-1-carboxamido)pyridin-2-yl)-1H-1,2,3-triazol-5-yl)carbamate] was run?
The EC50 was 5.2 nM.

With C[C@@H](OC(=O)Nc1c(-c2cc(F)c(NC(=O)c3ccc(C(F)(F)F)nc3)cn2)nnn1C)c1cccnc1Cl [Compound 317, (R)-1-(2-chloropyridin-3-yl)ethyl (4-(4-fluoro-5-(6-(trifluoromethyl)nicotinamido)pyridin-2-yl)-1-methyl-1H-1,2,3-triazol-5-yl)carbamate] as the compound, how does the EC50 read?
Its EC50 is 90.5 nM.

For C[C@@H](OC(=O)Nc1c(-c2ccc(NC(=O)c3cnc4cnn(C)c4c3)cn2)nnn1C)c1cc(F)cnc1F [Compound 278, (R)-1-(2,5-difluoropyridin-3-yl)ethyl (1-methyl-4-(5-(1-methyl-1H-pyrazolo[4,3-b]pyridine-6-carboxamido)pyridin-2-yl)-1H-1,2,3-triazol-5-yl)carbamate], which EC50 is on record?
The EC50 was 810 nM.

With C[C@@H](OC(=O)Nc1c(-c2cnc(NC(=O)c3ccc(C(F)(F)F)nc3)cn2)nnn1C)c1cc(F)cnc1F [Compound 322, (R)-1-(2,5-difluoropyridin-3-yl)ethyl (1-methyl-4-(5-(6-(trifluoromethyl)nicotinamido)pyrazin-2-yl)-1H-1,2,3-triazol-5-yl)carbamate] as the compound, how does the EC50 read?
Its EC50 is 170 nM.

How did the EC50 turn out when CO[C@H]1C[C@H](C(=O)Nc2ccc(-c3nnn(C)c3NC(=O)O[C@H](C)c3cccnc3Cl)nc2)C1 [Compound 156, (R)-1-(2-chloropyridin-3-yl)ethyl (4-(5-((1r,3R)-3-methoxycyclobutane-1-carboxamido)pyridin-2-yl)-1-methyl-1H-1,2,3-triazol-5-yl)carbamate] was run?
Its EC50 is 50.7 nM.

How did the EC50 turn out when C[C@@H](OC(=O)Nc1c(-c2ccc(NC(=O)c3cccc(C#N)n3)cn2)nnn1C)c1cccnc1Cl [Compound 98, (R)-1-(2-chloropyridin-3-yl)ethyl (4-(5-(6-cyanopicolinamido)pyridin-2-yl)-1-methyl-1H-1,2,3-triazol-5-yl)carbamate] was run?
The EC50 was 720 nM.

With COc1cc(C(=O)Nc2ccc(-c3nnn(C)c3NC(=O)O[C@H](C)c3cc(F)cnc3F)nc2)ccn1 [Compound 223, (R)-1-(2,5-difluoropyridin-3-yl)ethyl (4-(5-(2-methoxyisonicotinamido)pyridin-2-yl)-1-methyl-1H-1,2,3-triazol-5-yl)carbamate] as the compound, how does the EC50 read?
The EC50 was 118 nM.

C[C@@H](OC(=O)Nc1c(-c2ccc(NC(=O)C3CCC3)cn2)nnn1C)c1cccnc1Cl [Compound 35, (R)-1-(2-chloropyridin-3-yl)ethyl (4-(5-(cyclobutanecarboxamido)pyridin-2-yl)-1-methyl-1H-1,2,3-triazol-5-yl)carbamate] was tested. Which EC50 did it give?
The EC50 was 103 nM.

C[C@@H](OC(=O)Nc1c(-c2ccc(NC(=O)c3cc(F)nc(F)c3F)cn2)nnn1C)c1cc(F)cnc1F [Compound 264, (R)-1-(2,5-difluoropyridin-3-yl)ethyl (1-methyl-4-(5-(2,3,6-trifluoroisonicotinamido)pyridin-2-yl)-1H-1,2,3-triazol-5-yl)carbamate] was tested. Which EC50 did it give?
Its EC50 is 203 nM.

Which EC50 does the source give for C[C@@H](OC(=O)Nc1c(-c2ccc(NC(=O)[C@@H]3C[C@@H]3F)cn2)nnn1C)c1cccnc1Cl [Compound 53, (R)-1-(2-chloropyridin-3-yl)ethyl (4-(5-((1S,2S)-2-fluorocyclopropane-1-carboxamido)pyridin-2-yl)-1-methyl-1H-1,2,3-triazol-5-yl)carbamate] here?
The EC50 was 1460 nM.

Which EC50 does the source give for C[C@@H](OC(=O)Nc1c(-c2ccc(NC(=O)C3(C#N)CC3)cn2)nnn1C)c1cccnc1F [Compound 172, (R)-1-(2-fluoropyridin-3-yl)ethyl (4-(5-(1-cyanocyclopropane-1-carboxamido)pyridin-2-yl)-1-methyl-1H-1,2,3-triazol-5-yl)carbamate] here?
The EC50 was 236 nM.

For C[C@@H](OC(=O)Nc1c(-c2ccc(NC(=O)C#CC(C)(C)O)cn2)nnn1C)c1cccnc1Cl [Compound 111, (R)-1-(2-chloropyridin-3-yl)ethyl (4-(5-(4-hydroxy-4-methylpent-2-ynamido)pyridin-2-yl)-1-methyl-1H-1,2,3-triazol-5-yl)carbamate], which EC50 is on record?
Its EC50 is 191 nM.

For C[C@@H](OC(=O)Nc1c(-c2ccc(NC(=O)C34CC(CO3)C4)cn2)nnn1C)c1cccnc1Cl [Compound 105, (R)-1-(2-chloropyridin-3-yl)ethyl (4-(5-(2-oxabicyclo[2.1.1]hexane-1-carboxamido)pyridin-2-yl)-1-methyl-1H-1,2,3-triazol-5-yl)carbamate], which EC50 is on record?
The EC50 was 1580 nM.

How did the EC50 turn out when C[C@@H](OC(=O)Nc1c(-c2ccc(NC(=O)C34CCC(O)(CC3)CC4)cn2)nnn1C)c1cccnc1Cl [Compound 115, (R)-1-(2-chloropyridin-3-yl)ethyl (4-(5-(4-hydroxybicyclo[2.2.2]octane-1-carboxamido)pyridin-2-yl)-1-methyl-1H-1,2,3-triazol-5-yl)carbamate] was run?
Its EC50 is 654 nM.

Which EC50 does the source give for CC(=O)Nc1ccc(-c2nnn(C)c2NC(=O)O[C@H](C)c2cc(F)cnc2Cl)nc1 [Compound 15, (R)-1-(2-chloro-5-fluoropyridin-3-yl)ethyl (4-(5-acetamidopyridin-2-yl)-1-methyl-1H-1,2,3-triazol-5-yl)carbamate] here?
The EC50 was 452 nM.

C[C@@H](OC(=O)Nc1c(-c2ccc(NC(=O)[C@H]3CCC3(F)F)cn2)nnn1C)c1cccnc1Cl [Compound 91, (R)-1-(2-chloropyridin-3-yl)ethyl (4-(5-((R)-2,2-difluorocyclobutane-1-carboxamido)pyridin-2-yl)-1-methyl-1H-1,2,3-triazol-5-yl)carbamate] was tested. Which EC50 did it give?
Its EC50 is 187 nM.

How did the EC50 turn out when CO[C@H]1C[C@@H](C(=O)Nc2ccc(-c3nnn(C)c3NC(=O)O[C@H](C)c3cccnc3Cl)nc2)C1 [Compound 157, (R)-1-(2-chloropyridin-3-yl)ethyl (4-(5-((1s,3S)-3-methoxycyclobutane-1-carboxamido)pyridin-2-yl)-1-methyl-1H-1,2,3-triazol-5-yl)carbamate] was run?
The EC50 was 74.5 nM.
